According to US11634417B2 (Array BioPharma Inc., priority 2019, dated 2023):

Experiments:
[1] = system: ERK1/2 (Thr202/Tyr204) phosphorylation in KYSE520 cells; assay: Cellular Phospho-p44/42 MAPK (Erk1/2) (Thr202/Tyr204) assay, In-Cell Western; type: cell-based; conditions: Homo sapiens, KYSE-520; KYSE520 cells, 1 hour incubation, pERK signal normalized to GAPDH; single assay or mean of multiple assays; read-out: Biological Example 2 IC50
How it was run: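 KYSE520 cells were treated 1 h with a 10-point 1:3 series (20 μM-1 nM, 0.5% DMSO), then fixed and stained for pERK1/2 (Thr202/Tyr204) and GAPDH by In-Cell Western. pERK signal was normalized to GAPDH per well; IC50 from 4-parameter fit.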

[2] = target: T1, full-length SHP2 (Homo sapiens, UniProt Q06124); assay: SHP2 enzymatic assay (fluorescence intensity kinetic assay, DiFMUP hydrolysis); type: biochemical; conditions: 1 nM His6-tagged SHP2(2-527), 1 μM activating peptide, 50 μM DiFMUP; single assay or mean of multiple assays; read-out: Biological Example 1 IC50
T1 construct: 1 nM full-length SHP2 (His6-tagged SHP2(2-527), recombinantly expressed in E. coli and purified in-house); His6; made in house; host or cells: E. coli
T1 sequence (Q06124 2-527): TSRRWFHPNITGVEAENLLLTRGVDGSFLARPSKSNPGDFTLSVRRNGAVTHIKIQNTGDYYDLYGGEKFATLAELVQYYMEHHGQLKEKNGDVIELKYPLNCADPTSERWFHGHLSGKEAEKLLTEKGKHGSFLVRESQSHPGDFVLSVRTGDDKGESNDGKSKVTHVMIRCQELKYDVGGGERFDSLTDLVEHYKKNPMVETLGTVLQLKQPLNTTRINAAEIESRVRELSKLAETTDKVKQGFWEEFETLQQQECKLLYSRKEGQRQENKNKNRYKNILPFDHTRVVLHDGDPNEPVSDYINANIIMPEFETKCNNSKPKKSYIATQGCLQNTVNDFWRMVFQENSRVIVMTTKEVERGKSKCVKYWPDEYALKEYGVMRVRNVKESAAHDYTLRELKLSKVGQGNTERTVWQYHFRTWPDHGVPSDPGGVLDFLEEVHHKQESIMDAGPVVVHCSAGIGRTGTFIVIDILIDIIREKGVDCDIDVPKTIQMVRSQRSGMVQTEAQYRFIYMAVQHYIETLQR

Row | Compound | IC50 [2] | IC50 [1]
1 | Nc1nccc(Sc2cnc(N3CCC4(CC3)Cc3ncsc3[C@H]4N)nn2)c1Cl [Example 58, (S)-1′-(6-((2-amino-3-chloropyridin-4-yl)thio)-1,2,4-triazin-3-yl)-4,6-dihydrospiro[cyclopenta[d]thiazole-5,4′-piperidin]-6-amine] | 39 nM | 1 nM
2 | Cc1nc2c(s1)[C@@H](N)C1(CCN(c3ncc(Sc4ccnc(N)c4Cl)nn3)CC1)C2 [Example 61, (S)-1′-(6-((2-amino-3-chloropyridin-4-yl)thio)-1,2,4-triazin-3-yl)-2-methyl-4,6-dihydrospiro[cyclopenta[d]thiazole-5,4′-piperidin]-6-amine] | 87 nM | 6 nM
3 | COc1cc2c(cc1Cl)[C@H](N)C1(CCN(c3ncc(Sc4ccnc(N)c4Cl)nn3)CC1)C2 [Example 63, (R)-1′-(6-((2-amino-3-chloropyridin-4-yl)thio)-1,2,4-triazin-3-yl)-6-chloro-5-methoxy-1,3-dihydrospiro[indene-2,4′-piperidin]-1-amine] | 254 nM | 665 nM
4 | Nc1nccc(Sc2cnc(N3CCC4(CC3)Cc3ncc(Cl)cc3[C@H]4N)nn2)c1Cl [Example 65, (S)-1′-(6-((2-amino-3-chloropyridin-4-yl)thio)-1,2,4-triazin-3-yl)-3-chloro-5,7-dihydrospiro[cyclopenta[b]pyridine-6,4′-piperidin]-5-amine] | 64 nM | 81 nM
5 | N[C@@H]1c2ccccc2CC12CCN(c1ncc(Sc3n[nH]c4ccccc34)nn1)CC2 [Example 67, (S)-1′-(6-((1H-indazol-3-yl)thio)-1,2,4-triazin-3-yl)-1,3-dihydrospiro[indene-2,4′-piperidin]-1-amine] | 20 nM | 51 nM
6 | N[C@@H]1c2ccccc2CC12CCN(c1ncc(Sc3c[nH]c4ccccc34)nn1)CC2 [Example 69, (S)-1′-(6-((1H-indol-3-yl)thio)-1,2,4-triazin-3-yl)-1,3-dihydrospiro[indene-2,4′-piperidin]-1-amine] | 19 nM | 170 nM
7 | N[C@@H]1c2ccccc2CC12CCN(c1ncc(Sc3ccnc4c3CCN4)nn1)CC2 [Example 70, (S)-1′-(6-((2,3-dihydro-1H-pyrrolo[2,3-b]pyridin-4-yl)thio)-1,2,4-triazin-3-yl)-1,3-dihydrospiro[indene-2,4′-piperidin]-1-amine] | 36 nM | 9 nM
8 | N[C@@H]1c2ccccc2CC12CCN(c1ncc(Sc3cnc4ccccn34)nn1)CC2 [Example 71, (S)-1′-(6-(imidazo[1,2-a]pyridin-3-ylthio)-1,2,4-triazin-3-yl)-1,3-dihydrospiro[indene-2,4′-piperidin]-1-amine] | 55 nM | 152 nM
9 | Cn1ccc2c(Sc3cnc(N4CCC5(CC4)Cc4ccccc4[C@H]5N)nn3)ccnc21 [Example 73, (S)-1′-(6-((1-methyl-1H-pyrrolo[2,3-b]pyridin-4-yl)thio)-1,2,4-triazin-3-yl)-1,3-dihydrospiro[indene-2,4′-piperidin]-1-amine] | 32 nM | 6 nM

Continued, in another order:

Row | IC50 [2] | Compound | IC50 [1]
10 | 118 nM | Cc1ccc2c(c1)CC1(CCN(c3ncc(Sc4ccnc(N)c4Cl)nn3)CC1)[C@H]2N [Example 59, (R)-1′-(6-((2-amino-3-chloropyridin-4-yl)thio)-1,2,4-triazin-3-yl)-5-methyl-1,3-dihydrospiro[indene-2,4′-piperidin]-1-amine] | 170 nM
11 | 109 nM | Cc1ccc2c(n1)CC1(CCN(c3ncc(Sc4ccnc(N)c4Cl)nn3)CC1)[C@H]2N [Example 60] | 528 nM
12 | 39 nM | Cc1ccc2c(n1)CC1(CCN(c3ncc(Sc4ccnc(N)c4Cl)nn3)CC1)[C@@H]2N [Example 62] | 6 nM
13 | 41 nM | Nc1nccc(Sc2cnc(N3CCC4(CC3)Cc3ccc(Cl)cc3[C@H]4N)nn2)c1Cl [Example 64, (S)-1′-(6-((2-amino-3-chloropyridin-4-yl)thio)-1,2,4-triazin-3-yl)-6-chloro-1,3-dihydrospiro[indene-2,4′-piperidin]-1-amine] | 286 nM
